Twelve compounds from article PMC9728198, “Characterization of Two Self-Sufficient Monooxygenases, CYP102A15 and CYP102A170, as Long-Chain Fatty Acid Hydroxylases” (Journal of Microbiology and Biotechnology, 2020) can be followed below.

What is called Kd is the concentration at which binding is half-saturated. The Km is the substrate concentration at which the rate is half of its maximum.

Several values for one entry are separate records, joined by “and”; a condition that tells them apart may be missing. Equal entries are not always repeated. Where two headings read alike, the source gives them in different places.

Data set [1] addresses T1, CYP102A15 (Bacillus sp. (in: firmicutes), UniProt A0A2S1UG59). Put plainly: NADPH consumption assay and kinetic parameters. The following applies: for CE (coupling efficiency) / PFR (product formation rate) / Km: CYP102A15; for Km: read-out: Km (Michaelis–Menten constant).
Experimental: (§1) The NADPH consumption assay was performed at 340 nm. […] The total volume of the reaction was 250 μl. The obtained data were analyzed using GraphPad Prism software, and experiments were replicated at least three times.
(§2) Saturated fatty acids, unsaturated fatty acids and other cyclic compounds were the three main types of substrates used to determine the NADPH oxidation rate. […] The coupling efficiencies, product formation rates (PFR), and Michaelis–Menten constants (Km) of CYP102A15 and CYP102A170 were also investigated.
Data set [2] concerns the target T1, CYP102A15. Put plainly: Spectral substrate binding titration (low-spin to high-spin Soret shift).
Experimental: (§3) The binding affinity was evaluated by spectrometrically analyzing the enzyme binding of each substrate.
(§4) At the beginning, substrates were selected as fatty acids with different chain lengths and the unsaturation extent was tested for enzyme binding capacity. Substrate binding was observed by alternating from low-spin heme iron with a Soret band maximum at 419 nm in the UV-visible spectrum to high-spin heme iron with a Soret band maximum at 389 nm (Figs. 4, S3, and S4).
Data set [3] concerns the target T2, CYP102A170 (Paenibacillus sp., UniProt A0A2U8SZJ5). The data set is described as above.
Experimental: as §3, §4
Data set [4] concerns the target T2, CYP102A170. Kind of data set: NADPH consumption assay and kinetic parameters. The following applies: for Km: read-out: Km (Michaelis–Menten constant).
Experimental: as §1, §2
For data set [5], the target named is T2, CYP102A170.
Experimental: as §1, §2
The test system of data set [6] is CCCCCCCCCCCCCC(=O)O. Kind of data set: purified protein, by the assay type.
Experimental: as §1, §2
Where [7] appears, read: read-out: Kd (dissociation constant), CYP102A170, single-binding model for spectral change ΔA (A390–A420), 1 μM of protein.
The mark [8] stands for this setting: read-out: Kd (dissociation constant), CYP102A15, single-binding model for spectral change ΔA (A389–A419), 1 μM of protein.

T1 sequence (A0A2S1UG59 1-1047): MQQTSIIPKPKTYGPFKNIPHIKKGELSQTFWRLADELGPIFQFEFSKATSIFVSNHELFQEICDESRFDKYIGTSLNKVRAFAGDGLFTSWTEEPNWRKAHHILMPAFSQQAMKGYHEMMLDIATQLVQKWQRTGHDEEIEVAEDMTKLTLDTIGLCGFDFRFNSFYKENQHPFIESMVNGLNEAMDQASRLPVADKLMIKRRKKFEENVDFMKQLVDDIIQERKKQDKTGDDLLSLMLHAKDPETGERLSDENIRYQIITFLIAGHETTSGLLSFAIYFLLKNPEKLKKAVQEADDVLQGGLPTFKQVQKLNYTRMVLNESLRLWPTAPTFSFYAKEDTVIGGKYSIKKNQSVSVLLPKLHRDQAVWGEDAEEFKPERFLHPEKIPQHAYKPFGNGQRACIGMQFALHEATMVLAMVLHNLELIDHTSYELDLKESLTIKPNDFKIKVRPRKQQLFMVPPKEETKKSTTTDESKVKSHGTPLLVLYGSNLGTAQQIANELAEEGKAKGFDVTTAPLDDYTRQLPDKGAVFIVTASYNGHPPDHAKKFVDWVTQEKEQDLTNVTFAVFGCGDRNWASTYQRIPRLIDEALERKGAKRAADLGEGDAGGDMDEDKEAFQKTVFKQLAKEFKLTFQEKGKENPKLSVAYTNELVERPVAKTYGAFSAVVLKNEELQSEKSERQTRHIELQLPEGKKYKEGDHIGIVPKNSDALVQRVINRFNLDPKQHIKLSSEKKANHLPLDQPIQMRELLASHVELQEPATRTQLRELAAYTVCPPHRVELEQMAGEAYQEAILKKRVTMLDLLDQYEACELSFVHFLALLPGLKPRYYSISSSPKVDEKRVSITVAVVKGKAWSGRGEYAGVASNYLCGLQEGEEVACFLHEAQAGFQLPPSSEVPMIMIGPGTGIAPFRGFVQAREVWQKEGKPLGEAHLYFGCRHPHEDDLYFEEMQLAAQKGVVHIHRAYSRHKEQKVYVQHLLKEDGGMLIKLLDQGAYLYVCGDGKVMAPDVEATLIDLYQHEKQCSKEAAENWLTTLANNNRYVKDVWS
T2 sequence (A0A2U8SZJ5 1-1057 limits assumed): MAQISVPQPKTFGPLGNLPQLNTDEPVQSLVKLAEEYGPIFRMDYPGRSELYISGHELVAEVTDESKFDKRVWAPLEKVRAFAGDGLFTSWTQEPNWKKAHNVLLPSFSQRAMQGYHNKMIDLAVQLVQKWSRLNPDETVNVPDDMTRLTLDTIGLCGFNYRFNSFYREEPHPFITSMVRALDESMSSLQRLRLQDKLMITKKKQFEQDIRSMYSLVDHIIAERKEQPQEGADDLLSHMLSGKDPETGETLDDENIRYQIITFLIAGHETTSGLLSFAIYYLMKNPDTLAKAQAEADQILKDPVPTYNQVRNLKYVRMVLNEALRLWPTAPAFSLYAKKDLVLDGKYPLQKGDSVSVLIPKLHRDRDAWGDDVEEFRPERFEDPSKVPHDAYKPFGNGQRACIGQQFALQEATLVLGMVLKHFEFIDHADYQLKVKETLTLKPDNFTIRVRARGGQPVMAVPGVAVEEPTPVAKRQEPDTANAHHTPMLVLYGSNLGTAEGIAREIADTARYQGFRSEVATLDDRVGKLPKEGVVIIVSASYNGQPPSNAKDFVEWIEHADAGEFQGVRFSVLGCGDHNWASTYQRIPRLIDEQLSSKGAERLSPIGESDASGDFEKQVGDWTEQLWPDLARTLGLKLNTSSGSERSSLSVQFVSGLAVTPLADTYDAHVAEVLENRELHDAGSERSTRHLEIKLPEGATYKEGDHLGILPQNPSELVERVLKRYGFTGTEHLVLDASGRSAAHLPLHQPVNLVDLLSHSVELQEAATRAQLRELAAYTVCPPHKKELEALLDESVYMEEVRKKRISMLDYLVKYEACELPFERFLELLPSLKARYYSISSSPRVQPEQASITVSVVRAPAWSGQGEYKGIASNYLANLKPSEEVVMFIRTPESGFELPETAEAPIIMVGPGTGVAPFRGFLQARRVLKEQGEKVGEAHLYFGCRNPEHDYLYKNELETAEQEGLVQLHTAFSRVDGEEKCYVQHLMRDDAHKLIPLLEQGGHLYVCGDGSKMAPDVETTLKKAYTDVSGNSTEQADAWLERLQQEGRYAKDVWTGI

For the compound `CCOc1ccc2ccc(=O)oc2c1` [7-ethoxycoumarin], in data set [1] (data not shown, sentence does not name the enzyme, b46 names CYP102A15), the “NADPH consumption with cyclic compounds (in words)” value was “consumed the NADPH”.
For the compound `CCCCC/C=C\C/C=C\C/C=C\C/C=C\CCCC(=O)O` [Arachidonic acid], in data set [2], the Kd turned out to be 29.8 ± 1.8 µM.
With `CC/C=C\C/C=C\C/C=C\C/C=C\C/C=C\CCCC(=O)O` [Eicosapentaenoic acid], the Kd was determined as 1.3 ± 0.08 µM in data set [3] and 18.8 ± 3.8 µM in data set [2].
On to `CCCCCCCCCCCC(=O)O` [Lauric acid], for which the “PFR (product formation rate)” value came to 31.68 ± 0.70 nmol/ nmol-P450/min in data set [4] and 7.00 ± 0.10 nmol/ nmol-P450/min in data set [1]. The Km in data set [4] came to 13.4 ± 1.3 µM; in data set [1], 21.7 ± 3.6 µM. The figures for the “CE (coupling efficiency)” value in data set [5] and in data set [1] were 72% and 90%, respectively. The Kd came out at 6.46 ± 0.3 µM in data set [3] (setting [7]) and 7.78 ± 0.7 µM in data set [2] (setting [8]).
Consider `CCCCC/C=C\C/C=C\CCCCCCCC(=O)O` [Linoleic acid], for which the equilibrium dissociation constant (Kd) in data set [3] was determined as 1.36 ± 0.23 µM. Further, the Kd in data set [2] was 13.9 ± 1.5 µM. For the same compound, in data set [1], the “CE (coupling efficiency)” value was determined as 68%, the “PFR (product formation rate)” value worked out at 2.70 ± 0.30 nmol/ nmol-P450/min and the Km is 15.3 ± 4.7 µM.
Consider `CCCCCCCCCCCCCCCCC(=O)O` [Margaric acid], for which, in data set [4] (250 μM NADPH, 200 μM fatty acid, 0.5–1 μM enzyme, 340 nm), the NADPH consumption rate was 8.2 nmol/nmol-CYP/min. For the same compound, the Kd in data set [3] (setting [7]) stood at 2.83 ± 0.17 µM; in data set [2] (setting [8]) it was 17.9 ± 1.21 µM.
`CCCCCCCCCCCCCC(=O)O` [Myristic acid]: the “CE (coupling efficiency)” value in data set [4] was determined as 67%; in data set [1], 80%. Further, the “PFR (product formation rate)” value in data set [4] was found to be 37.52 ± 1.90 nmol/ nmol-P450/min; in data set [1], 35.91 ± 1.20 nmol/ nmol-P450/min. Also, the Kd in data set [3] amounted to 9.89 ± 0.39 µM; in data set [2], 14.9 ± 0.68 µM.
For `CCCCCCCC/C=C\CCCCCCCC(=O)O` [Oleic acid], the “PFR (product formation rate)” value in data set [4] is given as 41.50 ± 1.30 nmol/ nmol-P450/min; in data set [1] it was 23.10 ± 5.30 nmol/ nmol-P450/min. The Michaelis constant (Km) in data set [4] came out at 430 ± 98 µM; in data set [1] it was 39.1 ± 6.9 µM. Besides, the “CE (coupling efficiency)” value in data set [5] was 51%; in data set [1], 85%. Besides, the Kd was determined as 2.23 ± 0.09 µM in data set [3] and 25.7 ± 2.8 µM in data set [2].
For the compound `CCCCCCCCCCCCCCCC(=O)O` [Palmitic acid], the Kd in data set [3] stood at 5.01 ± 0.23 µM; in data set [2], 11 ± 1.3 µM.
`CCCCCCCCCCCCCCCCCC(=O)O` [Stearic acid]: the Kd in data set [3] was 3.37 ± 0.2 µM.
As for “CYP102A15 (Bacillus sp. (in: firmicutes))”, the Km in data set [6] (other: CYP102A15) worked out at 386.10 ± 39.20 µM.
As for CYP102A170 (Paenibacillus sp.), the Km in data set [6] (other: CYP102A170) is 17.4 µM and 17.43 ± 1.80 µM.
